Results from ChEMBL document CHEMBL1158200, “Coriadienin, the first annonaceous acetogenin with two double bonds isolated from Annona coriaceae” (J Nat Prod, 1996).
≈ marks a conversion by molar mass, not a printed value.

Assays:
KB = test: Cytotoxicity against human KB cells; type: functional
[1] = Cytotoxicity against african green monkey Vero cells; type: cell-based; settings: chlorocebus sabaeus, read-out: ED50 (the source's name)

Row | SMILES | EC50 (KB; Homo sapiens, KB, read-out: ED50 (the source's name)) | CC50 [1] | ED50 (KB)
1 | CC(=O)O[C@H]1C(=O)[C@@]2(C)[C@H]([C@H](OC(=O)c3ccccc3)[C@]3(O)C[C@H](OC(=O)[C@H](O)[C@@H](NC(=O)c4ccccc4)c4ccccc4)C(C)=C1C3(C)C)[C@]1(OC(C)=O)CO[C@@H]1C[C@@H]2O [PACLITAXEL] | 0.02 µg/mL (≈ 0.0234 µM) | > 0.3 µg/mL | –
2 | CCCCCCCCCCCC[C@H](O)[C@@H](O)CCC1OC1CCC1OC1CCC(O)CCCCCC(O)CC1=CC(C)OC1=O (some centres not stated) [BISEPOXYCORIADIENIN] | – | 0.013 µg/mL (≈ 0.0203 µM) | 2.5 ×10⁻⁷ ug/ml
3 | CCCCCCCCCCCC[C@H](O)[C@@H](O)CC/C=C\CC[C@@H](O)[C@H]1CCC(CCCCCC(O)CC2=CC(C)OC2=O)O1 (some centres not stated) [CORIACIN] | – | 0.0057 µg/mL (≈ 0.00915 µM) | <3 ×10⁻⁷ ug/ml
4 | CCCCCCCCCCCC[C@H](O)[C@@H](O)CC/C=C\CC[C@@H](O)[C@H]1CCC(CCCCCCCC2=CC(C)OC2=O)O1 (some centres not stated) | – | 0.05 µg/mL (≈ 0.0824 µM) | 6 ×10⁻⁴ ug/ml
5 | CCCCCCCCCCCCCCC(O)C(O)CC[C@H](O)[C@H]1CC[C@H](CCCCC[C@@H](O)CC2=C[C@H](C)OC2=O)O1 (some centres not stated) [GIGANTETRONENIN] | – | 0.0057 µg/mL (≈ 0.00955 µM) | <3 ×10⁻⁷ ug/ml
6 | CCCCCCCCCCCC[C@H](O)[C@@H](O)CC/C=C\CC/C=C\CCC(O)CCCCCC(O)CC1=CC(C)OC1=O (some centres not stated) [CORIADIENIN] | – | 0.15 µg/mL (≈ 0.247 µM) | 1.6 ×10⁻⁶ ug/ml
